Measurements reported in US5084082A, “Soybean plants with dominant selectable trait for herbicide resistance” (priority 1990, dated 1992).

Assays:
W20 = assay: Test C preemergence (soil) sulfonylurea application; type: in vivo, soybean; details: 19 days after treatment
Source text: (§1) W20, a line homozygous for a dominant sulfonylurea-resistance mutation, was compared to Williams 82 in terms of response to preemergence application of three sulfonylurea herbicides. The experimental unit consisted of a single 18 cm pot filled with soil (Sassafras loamy sand with 0.8% organic matter and pH 6.7) in which 6 seeds of a given soybean line were planted 2 cm deep. After planting, each pot was sprayed (using a conveyor belt spray apparatus to emulate field application) with one of 22 different treatments including a check sprayed with AGWT (90% acetone, 4% glycerol, 4% water, 2% Tween-20), and 21 different herbicide treatments using AGWT as a carrier. The herbicide treatments included 7 different concentrations (Table IX) each of three sulfonyl-ureas: Compound 5, Compound 4, and Compound 1. Each herbicide x line treatment was replicated three times. After herbicide treatment, pots were transferred to a greenhouse and arranged in a randomized complete block design. Nineteen days after treatment, each pot was rated visually for herbicide injury using the scale described previously. For each herbicide, analysis of variance on injury ratings was performed separately. Fisher's least significant difference (LSD) was used to determine the significance of line mean differences at each rate using the 95% level of confidence.

Williams 82 = assay: as above; type: in vivo, soybean; details: 19 days after treatment
Source text: as §1

ALS of W20 = assay: In vitro ALS activity of leaf tissue in the presence of Compounds 8 and 9; type: biochemical, soybean; details: W20, 100 ppb
Source text: (§2) At approximately 1 month after transplantation, some of the selections appeared much healthier than others. For example, W4-4, W4-6, W6-1, W6-2, W6-4, W23-10, and W23-11 recovered very well from the seed soak treatment with Compound 8. These plants were suspected of having a higher level of ALS resistance to Compound 8 than did the parental material from which they were derived. The applicant was also interested to see if any of these selections were cross resistant to an imidazolinone herbicide such as Compound 9. To test this hypothesis, leaf tissue of the one-month-old M2 plants was sampled and assayed in vitro for ALS activity in the presence of Compound 8 and Compound 9. The ALS assay procedure was essentially identical to the previously described ALS assay except that the herbicide concentrations tested were 100 ppb Compound 8 and 10 ppm Compound 9. Williams and mutant W20 soybean plants were also assayed as control genotypes for comparison. Williams contains no genes conferring the ALS-based sulfonylurea resistance while W20 is homozygous for a single mutation conferring ALS-based sulfonylurea resistance.
(§3) Acetolactate synthase (ALS) was extracted from leaves of soybean plants growing vegetatively. The leaves were homogenized in 4 volumes of buffer containing 100 mM hepes (pH 7.5), 1 mM sodium pyruvate, 0.5 mM magnesium chloride, 0.5 mM thiamine pyrophosphate, […], 10% glycerol, 5% PVPP, and 0.2% mercaptoethanol. The homogenate was filtered through cheese cloth and centrifuged at 20,000 g for 20 min. ALS was precipitated from the supernatant with ammonium sulfate. The enzyme was collected between 20 and 60% saturation by centrifugation at 20,000 g for 20 min. The pellet was resuspended in buffer containing 100 mM Hepes, 1 mM sodium pyruvate, and 0.5 mM magnesium chloride, and desalted on PD-10 columns (Pharmacia) equilibrated with the same buffer. ALS assays were carried out in a final volume of 0.5 mL at 30° C. The final reaction mixture contained 100 mM Hepes (pH 7.5), 1 mM magnesium chloride, 60 mM sodium pyruvate, 0.4 mM thiaminepyrophosphate, […], and various concentrations of chlorsulfuron. The assays were initiated with the addition of enzyme ([…]) and terminated with the addition of […] of 6N sulfuric acid. The acidified reaction mixture was heated to 60° C. for 15 min, after which 0.5 mL of 0.5% (W/V) creatine and 0.5 mL of 5% (W/V) napthol (freshly prepared in 2.5 N sodium hydroxide) were added. The reaction mixtures were heated for an additional 15 min at 60° C., and the absorbance was read at 525 nm. Data are expressed in terms of % control (minus Compound 1) activity and are the average of two replications. Fisher's least significant difference (LSD) value (at the 95% level of confidence) was calculated for each Compound 1 concentration to determine the significance of genotype mean differences.

ALS of W23-10 = assay: as above; type: biochemical, soybean; details: W23-10, 100 ppb
Source text: as §2, §3

ALS of W23-11 = assay: as above; type: biochemical, soybean; details: W23-11, 100 ppb
Source text: as §2, §3

ALS of W4-4 = assay: as above; type: biochemical, soybean; details: W4-4, 100 ppb
Source text: as §2, §3

ALS of W4-5 = assay: as above; type: biochemical, soybean; details: W4-5, 100 ppb
Source text: as §2, §3

ALS of W4-6 = assay: as above; type: biochemical, soybean; details: W4-6, 100 ppb
Source text: as §2, §3

ALS of W6-1 = assay: as above; type: biochemical, soybean; details: W6-1, 100 ppb
Source text: as §2, §3

ALS of W6-2 = assay: as above; type: biochemical, soybean; details: W6-2, 100 ppb
Source text: as §2, §3

ALS of W6-4 = assay: as above; type: biochemical, soybean; details: W6-4, 100 ppb
Source text: as §2, §3

ALS of Williams = assay: as above; type: biochemical, soybean; details: 100 ppb
Source text: as §2, §3

W20 seedlings = assay: Large-scale hydroponic screening pilot with Compound 8; type: in vivo, soybean; details: 300 ppb used to irrigate the hydroponic system
Source text: The first screening protocol used was identical to the "Large-Scale Hydroponic Screening System" described previously except for the fact that 300 ppb of Compound 8 was used as the selective agent instead of 100 ppb of Compound 1. […] Rare seedlings developing true leaves became very obvious against the background of inhibited seedlings.

COc1nc(C)nc(NC(=O)NS(=O)(=O)c2ccccc2Cl)n1 [Compound 1, 2-chloro-N-[[(4-methoxy-6-methyl-1,3,5-triazin-2-yl)amino]carbonyl]benzenesulfonamide]
% Injury (W20; W20, 0.3 g/ha preemergence): 0%
% Injury (W20; W20, 1 g/ha preemergence): 0%
% Injury (W20; W20, 3 g/ha preemergence): 3%
% Injury (W20; W20, 10 g/ha preemergence): 3%
% Injury (W20; W20, 30 g/ha preemergence): 18%
% Injury (W20; W20, 100 g/ha preemergence): 63%
% Injury (W20; W20, 300 g/ha preemergence): 65%
% Injury (Williams 82; WM 82, 0.3 g/ha preemergence): 30%
% Injury (Williams 82; WM 82, 1 g/ha preemergence): 50%
% Injury (Williams 82; WM 82, 3 g/ha preemergence): 73%
% Injury (Williams 82; WM 82, 10 g/ha preemergence): 95%
% Injury (Williams 82; WM 82, 30 g/ha preemergence): 100%
% Injury (Williams 82; WM 82, 100 g/ha preemergence): 100%
% Injury (Williams 82; WM 82, 300 g/ha preemergence): 100%

COC(=O)c1cccnc1S(=O)(=O)NC(=O)Nc1nc(OC)cc(OC)n1 [Compound 8, Methyl 2-[[[[(4,6-dimethoxy-2-pyrimidinyl)amino]carbonyl]amino]sulfonyl]-3-pyridinecarboxylate]
uninhibited ALS activity as % of control (ALS of W20): 10.7 % of control
uninhibited ALS activity as % of control (ALS of W23-10): 7.9 % of control
uninhibited ALS activity as % of control (ALS of W23-11): 3.8 % of control
uninhibited ALS activity as % of control (ALS of W4-4): 37.6 % of control
uninhibited ALS activity as % of control (ALS of W4-5): 7.1 % of control
uninhibited ALS activity as % of control (ALS of W4-6): 4.0 % of control
uninhibited ALS activity as % of control (ALS of W6-1): 8.5 % of control
uninhibited ALS activity as % of control (ALS of W6-2): 9.7 % of control
uninhibited ALS activity as % of control (ALS of W6-4): 10.5 % of control
uninhibited ALS activity as % of control (ALS of Williams): -0.3 % of control
seedling development (W20 seedlings): would not develop true leaves
